Reference: ChEMBL document CHEMBL1201862, “PubChem BioAssay data set” (2004)
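Growth conditions: 96-well plates. Treatment: test compound, 48 hours, 5 concentrations. Analysis: linear interpolation between bracketing concentrations; unreached endpoints set to highest concentration. GI50 = concentration required for 50% inhibition of growth.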 Calls of active or inactive are those of the source. No stated cut-off is given here; in the data, active = GI50 up to about 1.1 µM and inactive = higher.

How the values were obtained:
Assay in all cases: NCI anticancer screen, dose series, 48 h
SR = test system: SR
ACHN = test system: ACHN
HOP-92 = test system: HOP-92
OVCAR-3 = test system: OVCAR-3
M14 = test system: M14
NCI-H23 = test system: NCI-H23
786-0 = test system: 786-0
HCT-116 = test system: HCT-116
SF-539 = test system: SF-539
HCT-15 = test system: HCT-15
UO-31 = test system: UO-31
OVCAR-8 = test system: OVCAR-8
COLO 205 = test system: COLO 205
SF-268 = test system: SF-268
OVCAR-5 = test system: OVCAR-5
SF-295 = test system: SF-295
TK-10 = test system: TK-10
NCI/ADR-RES = test system: NCI/ADR-RES
A498 = test system: A498
CCRF-CEM = test system: CCRF-CEM

Row | SMILES | GI50 (SR) | GI50 (ACHN) | GI50 (HOP-92) | GI50 (OVCAR-3) | GI50 (M14) | GI50 (NCI-H23) | GI50 (786-0) | GI50 (HCT-116) | GI50 (SF-539) | GI50 (HCT-15) [µM] | GI50 (UO-31) | GI50 (OVCAR-8) | GI50 (COLO 205) | GI50 (SF-268) | GI50 (OVCAR-5) | GI50 (SF-295) | GI50 (TK-10) | GI50 (NCI/ADR-RES) | GI50 (A498) | GI50 (CCRF-CEM)
1 | COc1ccc(-c2cc(-c3ccccc3)n(C3OC(COC(C)=O)C(OC(C)=O)C(OC(C)=O)C3OC(C)=O)c(=S)c2C#N)cc1 (stereo unspecified) | 13.6 µM (inactive) | 15.2 µM (inactive) | 4.39 µM (inactive) | 11.4 µM (inactive) | 8 µM (inactive) | 19.3 µM (inactive) | 3.44 µM (inactive) | 6.07 µM (inactive) | 3.88 µM (inactive) | 26.1 | 9.08 µM (inactive) | 3.58 µM (inactive) | 11.3 µM (inactive) | 14.2 µM (inactive) | 15.7 µM (inactive) | 5.47 µM (inactive) | 25.9 µM (inactive) | 11 µM (inactive) | – | –
2 | O=C1CSC(c2cc3cc(Br)ccc3nc2Cl)N1c1ccc(Cl)cc1 (stereo unspecified) | 15.1 µM (inactive) | 13.5 µM (inactive) | 37.2 µM (inactive) | 16.7 µM (inactive) | 21.1 µM (inactive) | 31.3 µM (inactive) | 35.6 µM (inactive) | 23.6 µM (inactive) | 17.7 µM (inactive) | 16.8 | 32.3 µM (inactive) | 44.1 µM (inactive) | 17.9 µM (inactive) | 22.2 µM (inactive) | 94.8 µM (inactive) | 12.9 µM (inactive) | 29.6 µM (inactive) | 20.5 µM (inactive) | 36 µM (inactive) | 7.71 µM (inactive)
3 | CC(=O)c1c2c(cc3c1CC1(Cc4cc5c(cc4C1)C(=O)CCC5)C3)CCCC2 (stereo unspecified) | 2.48 µM (inactive) | 2.97 µM (inactive) | 2.55 µM (inactive) | 7.59 µM (inactive) | 7.8 µM (inactive) | 6.12 µM (inactive) | 5.66 µM (inactive) | 14.4 µM (inactive) | 4.17 µM (inactive) | 3.94 | 9.4 µM (inactive) | 13.9 µM (inactive) | 4.86 µM (inactive) | 8.07 µM (inactive) | 35.2 µM (inactive) | 8.24 µM (inactive) | 16.5 µM (inactive) | 5 µM (inactive) | 0.822 µM (active) | 1.77 µM (inactive)
4 | COC(=O)[C@H](Cc1ccccc1)NC(=O)N(CCNC(=O)OC(C)(C)C)c1ccccc1 | > 100 µM (inactive) | > 100 µM (inactive) | – | > 100 µM (inactive) | > 100 µM (inactive) | > 100 µM (inactive) | > 100 µM (inactive) | > 100 µM (inactive) | – | > 100 | > 100 µM (inactive) | > 100 µM (inactive) | > 100 µM (inactive) | > 100 µM (inactive) | > 100 µM (inactive) | > 100 µM (inactive) | – | > 100 µM (inactive) | > 100 µM (inactive) | > 100 µM (inactive)
5 | CN(C)C(=O)NCCN1CCCCCc2ccccc21 | > 100 µM (inactive) | > 100 µM (inactive) | 32.4 µM (inactive) | 37 µM (inactive) | 46.3 µM (inactive) | 76.4 µM (inactive) | – | > 100 µM (inactive) | > 100 µM (inactive) | > 100 | > 100 µM (inactive) | > 100 µM (inactive) | > 100 µM (inactive) | > 100 µM (inactive) | > 100 µM (inactive) | > 100 µM (inactive) | > 100 µM (inactive) | > 100 µM (inactive) | > 100 µM (inactive) | 71.8 µM (inactive)
6 | O=C(/C=C/c1ccc(OCc2ccccc2)cc1)NCc1ccc(C(=O)NCc2ccccc2)cc1 | > 100 µM (inactive) | > 100 µM (inactive) | > 100 µM (inactive) | > 100 µM (inactive) | > 100 µM (inactive) | > 100 µM (inactive) | > 100 µM (inactive) | > 100 µM (inactive) | > 100 µM (inactive) | > 100 | > 100 µM (inactive) | > 100 µM (inactive) | > 100 µM (inactive) | > 100 µM (inactive) | > 100 µM (inactive) | > 100 µM (inactive) | > 100 µM (inactive) | > 100 µM (inactive) | > 100 µM (inactive) | > 100 µM (inactive)
7 | Cc1ccc(/C=C/C(=O)c2c([O-])on[n+]2-c2ccccc2)cc1 | 2.9 µM (inactive) | 1.87 µM (inactive) | 4.52 µM (inactive) | 3.1 µM (inactive) | 2.34 µM (inactive) | 4.61 µM (inactive) | 1.83 µM (inactive) | 1.84 µM (inactive) | 3.28 µM (inactive) | 1.98 | 2.62 µM (inactive) | 1.85 µM (inactive) | 2.69 µM (inactive) | 4.35 µM (inactive) | 4.17 µM (inactive) | 7.74 µM (inactive) | 2.95 µM (inactive) | 2.4 µM (inactive) | 5.86 µM (inactive) | 1.36 µM (inactive)
8 | CC[C@H](O)[C@H](C)C=C1SCCCS1 | > 100 µM (inactive) | > 100 µM (inactive) | > 100 µM (inactive) | > 100 µM (inactive) | > 100 µM (inactive) | > 100 µM (inactive) | > 100 µM (inactive) | > 100 µM (inactive) | – | > 100 | 61.8 µM (inactive) | > 100 µM (inactive) | > 100 µM (inactive) | > 100 µM (inactive) | > 100 µM (inactive) | > 100 µM (inactive) | > 100 µM (inactive) | > 100 µM (inactive) | > 100 µM (inactive) | > 100 µM (inactive)
9 | COc1cccc(OCC(=N/NC(=O)c2ccncc2)/N=C/c2ccncc2)c1 | – | > 100 µM (inactive) | > 100 µM (inactive) | > 100 µM (inactive) | > 100 µM (inactive) | > 100 µM (inactive) | > 100 µM (inactive) | > 100 µM (inactive) | > 100 µM (inactive) | > 100 | – | > 100 µM (inactive) | > 100 µM (inactive) | > 100 µM (inactive) | > 100 µM (inactive) | > 100 µM (inactive) | > 100 µM (inactive) | > 100 µM (inactive) | > 100 µM (inactive) | > 100 µM (inactive)
10 | OC[C@H]1C[C@@H]2Cc3ccccc3N2N1 | > 100 µM (inactive) | > 100 µM (inactive) | > 100 µM (inactive) | > 100 µM (inactive) | > 100 µM (inactive) | > 100 µM (inactive) | > 100 µM (inactive) | > 100 µM (inactive) | > 100 µM (inactive) | > 100 | – | > 100 µM (inactive) | > 100 µM (inactive) | > 100 µM (inactive) | > 100 µM (inactive) | > 100 µM (inactive) | > 100 µM (inactive) | > 100 µM (inactive) | > 100 µM (inactive) | > 100 µM (inactive)
11 | Cc1cccc(/C=N/NC(=S)NCCc2ccccn2)n1 | 28.4 µM (inactive) | 13.3 µM (inactive) | 22.3 µM (inactive) | 48 µM (inactive) | 16.7 µM (inactive) | 26.6 µM (inactive) | 23.3 µM (inactive) | 31.8 µM (inactive) | 26.7 µM (inactive) | 26.5 | 16.9 µM (inactive) | 27.9 µM (inactive) | 31.4 µM (inactive) | 19.6 µM (inactive) | 46.7 µM (inactive) | 24.6 µM (inactive) | 71.4 µM (inactive) | 31.8 µM (inactive) | 34 µM (inactive) | 9.89 µM (inactive)
12 | N#CCN(Cc1ccccc1)[C@H]1CCC[C@]1(O)/C=C/c1ccc2c(c1)OCO2 | 17.5 µM (inactive) | 42 µM (inactive) | 18.2 µM (inactive) | 5.41 µM (inactive) | 16.5 µM (inactive) | 24.9 µM (inactive) | 17.4 µM (inactive) | – | 41.1 µM (inactive) | 22.2 | 27.2 µM (inactive) | 17.1 µM (inactive) | 15.6 µM (inactive) | 34.4 µM (inactive) | 39.3 µM (inactive) | 16.4 µM (inactive) | 42.9 µM (inactive) | 19.3 µM (inactive) | 37.2 µM (inactive) | 16.4 µM (inactive)
13 | CCCCC1Cc2ccccc2-c2n1c1ccccc1[n+]2C (stereo unspecified) | 7.67 µM (inactive) | 37.9 µM (inactive) | 20.4 µM (inactive) | 4.15 µM (inactive) | 23.3 µM (inactive) | 2.17 µM (inactive) | 38.2 µM (inactive) | 17.6 µM (inactive) | 27.8 µM (inactive) | 95.5 | 66.7 µM (inactive) | 21.9 µM (inactive) | – | 11.4 µM (inactive) | 42.9 µM (inactive) | 6.92 µM (inactive) | 22.8 µM (inactive) | > 100 µM (inactive) | 23.6 µM (inactive) | 10.9 µM (inactive)
14 | CON(C)C(C#N)=C(C#N)C#N | > 10 µM (inactive) | > 10 µM (inactive) | – | > 10 µM (inactive) | > 10 µM (inactive) | > 10 µM (inactive) | – | > 10 µM (inactive) | > 10 µM (inactive) | > 10 | > 10 µM (inactive) | > 10 µM (inactive) | > 10 µM (inactive) | > 10 µM (inactive) | > 10 µM (inactive) | > 10 µM (inactive) | > 10 µM (inactive) | > 10 µM (inactive) | > 10 µM (inactive) | > 10 µM (inactive)
15 | COc1cc2c(ccc3c4cc(OC)c(OC)cc4c[n+](C)c23)cc1O [FAGARONINE] | – | – | 23.6 µM (inactive) | 4.72 µM (inactive) | – | 7.76 µM (inactive) | – | 4.24 µM (inactive) | 2.88 µM (inactive) | > 73.3 | > 72.8 µM (inactive) | 1.69 µM (inactive) | 15 µM (inactive) | 0.0588 µM (active) | 24 µM (inactive) | 7.93 µM (inactive) | – | 63.2 µM (inactive) | 3.94 µM (inactive) | 2.02 µM (inactive)
